Assays:
[1] = system: mouse embryonic stem (ES) cells; experiment: reduction of mutations in mouse embryonic stem (ES) cells; type: cell-based; details: hits from Chembridge Diverset screen
Excerpt: Assays as described here were used to screen a Chembridge Diverset library (30,000 compounds). […] These small molecules are: 4-benzoyl-2-methyphenyl (2-nitrophenoxy) acetate; N-benzyl-2-([bis(furan-2-yl)-1,2,4-triazin-3-yl] sulfanyl) acetamide; 6-(benzylcarbamoyl)-1-methycyclohex-3-ene-1-carboxylic acid; 8-(phenylamino)naphthalene-1-sulfonic acid; and benzyl 6-(furan-2-yl)-3-methyl-4-oxo-4,5,6,7-tetrahydro-1H-indole-2-carboxylate. […] TX2Is appear to be nontoxic to cells and TREX2-deletion was asymptomatic for >50% of life span.

[2] = system: msh2^−/− cells; experiment: puro(A)10 polymerase slippage assay, puromycin resistant colonies; type: cell-based, mouse; details: msh2^−/− cells with puro(A)10 reporter; 10 μM TREX2 inhibitor with puromycin; colonies counted about day 10; DMSO versus compounds p<0.02 (FIGS. 8B, 8C)

SMILES	mutations in mouse embryonic stem (ES) cells [1]	spontaneous polymerase slippage (fraction of puromycin resistant cells) [2]
Cc1cc(C(=O)c2ccccc2)ccc1OC(=O)COc1ccccc1[N+](=O)[O-] [Compound 1, 4-benzoyl-2-methyphenyl (2-nitrophenoxy) acetate]	reduce a range of mutations	reduce spontaneous polymerase slippage
O=S(=O)(O)c1cccc2cccc(Nc3ccccc3)c12 [Compound 6, 8-(phenylamino)naphthalene-1-sulfonic acid]	reduce a range of mutations	reduce spontaneous polymerase slippage
O=C(CSc1nnc(-c2ccco2)c(-c2ccco2)n1)NCc1ccccc1 [Compound 10, N-benzyl-2-([bis(furan-2-yl)-1,2,4-triazin-3-yl]sulfanyl) acetamide]	reduce a range of mutations	reduce spontaneous polymerase slippage
CC1(C(=O)O)CC=CCC1C(=O)NCc1ccccc1 (stereo not drawn) [Compound 11, 6-(benzylcarbamoyl)-1-methycyclohex-3-ene-1-carboxylic acid]	reduce a range of mutations	reduce spontaneous polymerase slippage
Cc1c(C(=O)OCc2ccccc2)[nH]c2c1C(=O)CC(c1ccco1)C2 (stereo not drawn) [benzyl 6-(furan-2-yl)-3-methyl-4-oxo-4,5,6,7-tetrahydro-1H-indole-2-carboxylate]	reduce a range of mutations	
